From ChEMBL document CHEMBL1150871, “New Briarane Stecholide Diterpenes from the Indonesian Gorgonian Briareum sp” (J Nat Prod, 1998)
Converted amounts (≈) assume the structure as drawn.

Tests used:
Type in all cases: functional, cell-based
HT-29 = test: Cytotoxicity against human HT-29 cells
P388 = test: Cytotoxicity against mouse P388 cells
SK-MEL-28 = test: Cytotoxicity against human SK-MEL-28 cells
A549 = test: Cytotoxicity against human A549 cells

Row | SMILES | IC50 (HT-29) [µg/mL] | IC50 (P388) [µg/mL] | IC50 (SK-MEL-28) [µg/mL] | IC50 (A549) [µg/mL] | EC50 (P388) [µg/mL]
1 | CC(=O)O[C@H]1C/C(C)=C\[C@@H]2OC(=O)[C@]3(C)O[C@]23[C@@H](OC(C)=O)[C@H]2C(C)=CC[C@H](OC(C)=O)[C@]2(C)[C@H]1OC(C)=O | > 10 | > 10 | > 10 | > 10 | –
2 | CC(=O)O[C@H]1CC/C(C)=C\[C@@H]2OC(=O)[C@]3(C)O[C@@]23[C@@H](OC(C)=O)[C@H]2[C@@]3(C)O[C@H]3C[C@H](OC(C)=O)[C@]12C | > 10 | – | > 10 | > 10 | 1.59 (≈ 3.14 µM)
3 | CC(=O)O[C@H]1C=C[C@@](C)(O)[C@@H]2[C@H](OC(C)=O)[C@@]34O[C@@]3(C)C(=O)O[C@H]4/C=C(/C)CC[C@H](OC(C)=O)[C@@]12C | > 10 | > 10 | > 10 | > 10 | –
4 | CCCC(=O)O[C@H]1C[C@@H](OC(C)=O)/C(C)=C\[C@@H]2OC(=O)[C@]3(C)O[C@@]23[C@@H](OC(C)=O)[C@H]2[C@@]3(C)O[C@H]3C[C@H](OC(C)=O)[C@]12C [STECHOLIDE A ACETATE] | > 10 | > 10 | > 10 | > 10 | –
5 | CC(=O)O[C@H]1C[C@@H]2O[C@]2(C)[C@@H]2[C@H](OC(C)=O)[C@@]34O[C@@]3(C)C(=O)O[C@H]4/C=C(/C)[C@H](OC(C)=O)C[C@H](OC(C)=O)[C@]12C [STECHOLIDE C ACETATE] | > 10 | > 10 | > 10 | > 10 | –
6 | CCCC(=O)O[C@@H]1C/C(C)=C\[C@@H]2OC(=O)[C@]3(C)O[C@]23[C@H](OC(C)=O)[C@H]2C(C)=C[C@@H](O)[C@H](OC(C)=O)[C@]2(C)[C@H]1OC(C)=O [STECHOLIDE I] | > 10 | > 10 | > 10 | > 10 | –
7 | CC(=O)O[C@@H]1[C@H]2C(C)=C[C@@H](O)[C@H](OC(C)=O)[C@]2(C)[C@@H](OC(C)=O)[C@H](OC(C)=O)C/C(C)=C\[C@@H]2OC(=O)[C@]3(C)O[C@@]213 [STECHOLIDE J] | > 10 | > 10 | > 10 | > 10 | –
8 | CC(=O)O[C@@H]1[C@@H]2O[C@]2(C)[C@@H]2[C@@H](OC(C)=O)[C@]34O[C@@]3(C)C(=O)O[C@H]4/C=C(/C)C[C@@H](OC(C)=O)[C@H](OC(C)=O)[C@@]2(C)[C@H]1OC(C)=O [STECHOLIDE K] | > 10 | > 10 | > 10 | > 10 | –
9 | CC(=O)O[C@@H]1[C@H]2[C@@]3(C)O[C@H]3[C@@H](O)[C@H](OC(C)=O)[C@]2(C)[C@@H](OC(C)=O)[C@H](OC(C)=O)C/C(C)=C\[C@@H]2OC(=O)[C@]3(C)O[C@@]213 [STECHOLIDE L] | 5 (≈ 8.61 µM) | 10 (≈ 17.2 µM) | 5 (≈ 8.61 µM) | 2.5 (≈ 4.31 µM) | –
